Data as given in patent US10407467B2, “Polymyxin derivatives and their use in combination therapy together with different antibiotics” (priority 2013, dated 2019).
Structures can show the parent of a compound that is named as a salt. Where two headings read alike, the source gives them in different places. Bridge positions count the residues as written; N and C are the ends. Square brackets hold non-standard residues; d marks the D form. Peptide text beside a SMILES is read from it. * marks the point of attachment. ξ: configuration not given here. X18 = O=C([C@H]1CC[C@H](O)CC1)*; Thr(3ξ) = CC(O)[C@H](N)C(=O)O; Dab = NCC[C@H](N)C(=O)O; X23 = O=C(CCCN1CCOCC1)*

Experiments:
Format in all cases: cell-based
[1] = test system: Pseudomonas aeruginosa; test: MIC, sole activity (no second agent); conditions: for MIC: Pseudomonas aeruginosa, ATCC10145, read-out: MIC P. aeruginosa ATCC 10145
Procedure: (§1) To evaluate the potency and spectrum of the compounds both alone and in combination with another agent, susceptibility testing was performed against up to four strains of each of the four Gram negative pathogens, Escherichia coli, Pseudomonas aeruginosa, Klebsiella pneumoniae and Acinetobacter baumannii.
(§2) The inoculum was prepared by making a direct suspension of isolated colonies (selected from an 18-24 hour Mueller-Hinton agar plate) adjusted to the 0.5 McFarland standard.
(§3) The assays were performed in duplicate.
(§4) In cases where the duplicate values varied by less than 2-fold, the lower of the two values is reported. If a variation of greater than 2-fold was observed, the assay was considered non-valid. Several of the compounds were subjected to multiple tests, and where this is the case, the MIC reflects the modal value obtained.
(§5) MICs were determined as described herein, except that a different supplier of Cation-adjusted MHB was used. […] Values are reported relative to Polymyxin B.

[2] = test system: Klebsiella pneumoniae; test: MIC, sole activity (no second agent); conditions: for MIC: Klebsiella pneumoniae
Procedure: as §1, §2, §3, §4, §5

[3] = test system: Acinetobacter baumannii; test: MIC, sole activity (no second agent); conditions: for MIC A. baumannii ATCC BAA-747 / MIC A. baumannii NCTC 13424: Table 6A, no second agent, different supplier of Cation-adjusted MHB; for MIC: Acinetobacter baumannii, NCTC13424
Procedure: as §1, §2, §3, §4, §5

[4] = test system: Escherichia coli; test: MIC, sole activity (no second agent); conditions: for MIC: Escherichia coli
Procedure: as §1, §2, §3, §4, §5

[5] = test system: Pseudomonas aeruginosa; test: MIC, compound in combination with a second agent (broth microdilution); conditions: 1:1 (wt:wt) combination with Rifampicin; MIC = total drug concentration; strain CCUG 59626
Procedure: as §1
(§6) Ratios of components in a combination, such as 1:1, refers to a weight to weight ratio. The minimum inhibitory concentration (MIC) refers to the total drug concentration (e.g. test compound plus second agent, such as Rifampicin).
as §2, §3, §4
(§7) The minimum inhibitory concentration refers to the total drug concentration (e.g. test compound plus Rifampicin). The compounds are used at equal mass within the combination. The weight refers to the mass of compound as used, for example the Example Compounds are used in their TFA or sulphate salt forms.
(§8) MICs refer to the total drug concentration. Thus, where a 1:1 combination is used, this is the amount of the test compound plus the second agent. For comparison, the MIC values for the second agent alone are also given.

[6] = test system: Klebsiella pneumoniae; test: as above; conditions: 1:1 (wt:wt) combination with Rifampicin, MIC = total drug concentration; for MIC K. pneumoniae ATCC-BAA-2146: strain ATCC-BAA-2146; for MIC K. pneumoniae CCUG-59348: strain CCUG-59348
Procedure: as §1, §6, §2, §3, §4, §7, §8

[7] = Table 6A, no second agent, different supplier of Cation-adjusted MHB
[8] = in the absence of Rifampicin, strain ATCC27853
[9] = in the absence of Rifampicin, strain ATCC 4352
[10] = in the absence of Rifampicin, strain ATCC25922

Row | Compound | MIC P. aeruginosa ATCC 27853 [1, 7] [micrograms/mL] | MIC P. aeruginosa CCUG 59347 [1, 7] [micrograms/mL] | MIC K. pneumoniae ATCC 4352 [2, 7] [micrograms/mL] | MIC K. pneumoniae ATCC BAA-2146 [2, 7] [micrograms/mL] | MIC A. baumannii ATCC BAA-747 [3] [micrograms/mL] | MIC A. baumannii NCTC 13424 [3] [micrograms/mL] | MIC E. coli NCTC 13441 [4, 7] [micrograms/mL] | MIC E. coli ATCC25922 [4, 7] [micrograms/mL] | also measured
1 | 2-(1- (Aminomethyl)cyclohexyl) ethanoyl Polymyxin B nonapeptide [Example A30] | 0.5 | 1 | 0.5 | 1 | 8 | 8 | 1 |  | 
2 | 2-(1- Hydroxycyclohexyl)ethanoyl polymyxin B nonapeptide [Example A15] | 4 | 8 | 4 |  | >8 | >8 | 8 | 8 | 
3 | 2-(R)-(2-amino-2- cyclohexyl)ethanoyl polymyxin B nonapeptide [Example A38] | 0.5 | 1 | 0.5 | 2 | 1 | 2 | 2 | 0.5 | 
4 | 2-(RS)-2-aminooctyl polymyxin B decapeptide [Example A5] | 0.25 | 0.5 | 0.5 | 0.5 | 1 | 2 |  | 0.5 | 
5 | 2-Aminomethylbenzoyl polymyxin B nonapeptide [Example A31] | 0.5 | 2 | 2 | >8 | >8 | >8 | 2 | 8 | 
6 | 3-(R)-3-Amino-5- methylhexanoyl polymyxin B nonapeptide [Example A45] | 0.5 | 1 | 1 |  | >8 | >8 | 2 | 2 | 
7 | 3-(RS)-3-amino octanoyl polymyxin B nonapeptide. Isomer 1 [Example A32] | 0.5 | 1 | 0.5 | 0.25 | 2 | 2 | 0.5 | 0.5 | 
8 | 3-Methylpiperidine-3- carbonyl polymyxin B nonapeptide [Example A39] | 2 | 4 | 8 | >8 | >8 | >8 | 8 | >8 | 
9 | 4-[3(R,S)-3-Amino-3- cyclohexanepropanamido] piperidine-4-carbonyl polymyxin B nonapeptide [Example A28] | 2 | 4 | >8 | >8 | >8 | >8 | >8 | >8 | 
10 | 5-Hydroxypiperidine-3- carbonyl polymyxin B nonapeptide [Example A50] | 1 | 2 | 0.25 | 2 |  | 2 | 2 | 1 | 
11 | CC[C@H]1OC(=O)[C@H](C)[C@@H](O[C@H]2C[C@@](C)(OC)[C@@H](O)[C@H](C)O2)[C@H](C)[C@@H](O[C@@H]2O[C@H](C)C[C@H](N(C)C)[C@H]2O)[C@](C)(O)C[C@@H](C)CN(C)[C@H](C)[C@@H](O)[C@]1(C)O [Azithromycin, reference compound] |  |  |  |  |  |  |  |  | MIC ([1]; Table 7F, P. aeruginosa ATCC 10145, second agent none): 32 µg/mL; MIC ([2]; CCUG59349, Table 7F, K. pneumoniae CCUG 59349, second agent none, read-out: MIC K. pneumoniae CCUG 59349): > 32 µg/mL; MIC ([2]; Table 7F, K. pneumoniae ATCC4352, second agent none, read-out: MIC K. pneumoniae ATCC4352): 0.25 µg/mL; MIC ([3]; Table 7F, A. baumannii NCTC 13424, second agent none): 8 µg/mL; MIC ([4]; NCTC13441, Table 7F, E. coli NCTC 13441, second agent none, read-out: MIC E. coli NCTC 13441): > 32 µg/mL; MIC ([4]; Table 7F, E. coli ATCC25922, second agent none, read-out: MIC E. coli ATCC25922): 1 µg/mL
12 | C[C@H]1[C@H](NC(=O)/C(=N\OC(C)(C)C(=O)O)c2csc(N)n2)C(=O)N1S(=O)(=O)O [Aztreonam, reference compound] |  |  |  |  |  |  |  |  | MIC ([1]; Second Agent none (Table 7E)): 4 µg/mL; MIC ([2]; ATCC4352, Second Agent none (Table 7E), read-out: MIC K. pneumoniae ATCC4352): ≤ 0.06 µg/mL; MIC ([2]; CCUG59349, Second Agent none (Table 7E), read-out: MIC K. pneumoniae CCUG 59349): > 32 µg/mL; MIC ([3]; Second Agent none (Table 7E), read-out: MIC A. baumannii NCTC 13424): 8 µg/mL; MIC ([4]; ATCC25922, Second Agent none (Table 7E), read-out: MIC E. coli ATCC25922): ≤ 0.06 µg/mL; MIC ([4]; NCTC13441, Second Agent none (Table 7E), read-out: MIC E. coli NCTC 13441): > 32 µg/mL
13 | CC(C)C[C@@H]1NC(=O)[C@@H](Cc2ccccc2)NC(=O)[C@H](CCN)NC(=O)[C@@H](NC(=O)[C@H](CCN)NC(=O)[C@@H](NC(=O)CCCN2CCOCC2)C(C)O)CCNC(=O)[C@H](C(C)O)NC(=O)[C@H](CCN)NC(=O)[C@H](CCN)NC1=O (stereo partly shown) [Example 14, 4- Morpholinylbutanoyl polymyxin B nonapeptide, trifluoroacetate salt] (X23-[Thr(3ξ)][Dab][Dab][Dab][dF]L[Dab][Dab][Thr(3ξ)]; lactam 3-C) |  |  |  |  |  |  |  |  | MIC P. aeruginosa CCUG 59626 [5]: 0.5 micrograms/mL; MIC K. pneumoniae ATCC-BAA-2146 [6]: 2 micrograms/mL; MIC K. pneumoniae CCUG-59348 [6]: 16 micrograms/mL; MIC P. aeruginosa ATCC 27853 [1, 8]: 1 micrograms/mL; MIC K. pneumoniae ATCC 4352 [2, 9]: >32 micrograms/mL; MIC E. coli ATCC25922 [4, 10]: 4 micrograms/mL
14 | CC(C)C[C@@H]1NC(=O)[C@@H](Cc2ccccc2)NC(=O)[C@H](CCN)NC(=O)[C@@H](NC(=O)[C@H](CCN)NC(=O)[C@@H](NC(=O)[C@H]2CC[C@H](O)CC2)C(C)O)CCNC(=O)[C@H](C(C)O)NC(=O)[C@H](CCN)NC(=O)[C@H](CCN)NC1=O (stereo partly drawn) [Example 25, trans-4-hydroxycyclohexane carbonyl polymyxin B nonapeptide] (X18-[Thr(3ξ)][Dab][Dab][Dab][dF]L[Dab][Dab][Thr(3ξ)]; lactam 3-C) |  |  |  |  |  |  |  |  | MIC P. aeruginosa CCUG 59626 [5]: 0.5 micrograms/mL; MIC K. pneumoniae ATCC-BAA-2146 [6]: 1 micrograms/mL; MIC K. pneumoniae CCUG-59348 [6]: 8 micrograms/mL; MIC K. pneumoniae NCTC 13438 ([6]; strain NCTC 13438): 2 micrograms/mL; MIC P. aeruginosa ATCC 27853 [1, 8]: 0.125 micrograms/mL; MIC K. pneumoniae ATCC 4352 [2, 9]: 4 micrograms/mL; MIC E. coli ATCC25922 [4, 10]: 8 micrograms/mL
